Test results published in patent US20040219100A1, “Composition useful for the treatment of tumors” (priority 2003, published 2004).

Test system: JJ5 Breast Cancer cells
Test: Kinetics of binding and retention of radioactivity by the cells
Assay type: cell-based, human
Description: Breast cancer cells express up to 100-fold higher levels of EGFR than do normal epithelial tissues. EGFR expression in breast cancer bone metastasis biopsies ranged from 1-1300 fmol/mg membrane protein (approximately 400-1,000,000 receptors/cell) and was associated with high relapse rates and poor long term survival. Normal epithelial cells express <10^4 receptors/cell. For the normal breast cell line HBL-100, 8000 EGFR/cell has been reported. The expression of EGFR in breast cancer cell lines has a reported range of 800 EGFR/cell for MCF-7 cells to 10^6 EGFR/cell for MDA-MB-468 cells. […] Utilizing the Auger electron emitter ^111In was used in the initial experiments to illustrate the utility of the invention using EGF-^111In-labeled transferrin compounds. […] The cell pellet was separated from the supernatant and counted in a g-scintillation counter to determine bound (B) and free (F) radioactivity. Non-specific binding was determined by conducting the assay in 100 nM hEGF. […] Internalized fraction was measured by determining the proportion of radioactivity which could not be displaced from the cell surface by 100 nM hEGF. Cell-associated binding (surface-binding and intracellular accumulation) was expressed as a percentage of medium radioactivity bound per mg of cell study protein.

Question: What does the source list for “EGF-^111In-labeled transferrin compound: human epidermal growth factor (EGF) operatively linked (peptide or PEG linker, biotin-streptavidin) to 111In-radiolabeled human transferrin”?
Answer: retained by the breast cancer cells (37° C., JJ5 cells): at least 24 hours; 111In radioactivity lost from the cells in vitro (over a 24 hour period at 37° C.): < 8%
